Values of other authors, collected in patent US20240423900A1, “ANHYDROUS BARRIER AND ANTIOXIDANT COMPOSITIONS” (Baek Clinical Inc., priority 2023, published 2024).

Key:
[1] = general statement, no test described
human skin = settings: general statement, no test described

## CC(C)CCCC(C)CCCC(C)CCCCC(C)CCCC(C)CCCC(C)C (centres unmarked) [Squalane, squalane]
[1]
  acute toxicity: low acute toxicity
Human skin
  human skin irritant or sensitizer: not a significant human skin irritant or sensitizer
